Data from patent US11773368B2, “Culture method for differentiating primordial germ cells into functionally mature oocytes” (TOKYO UNIVERSITY OF AGRICULTURE, priority 2015, dated 2023).
Entries after “also recorded” stand apart in the source; their conditions may differ.

What was measured:
[1] = tested on: primordial germ cells in gonads from female mouse fetuses at 12.5 dpc; test: In vitro organ culture of gonad (secondary follicle formation); format: cell-based
Procedure: For the medium of the organ culture, the basal medium supplemented with FBS (Gibco, Thermo Fisher Scientific Inc.), SPS (SAGE In vitro Fertilization), the estrogen receptor antagonist, 7α, 17β-[9-([4,4,5,5,5-pentafluoropentyl]sulfinyl)nonyl]estra-1,3,5(10)-triene-3,17-diol; ICI 182,780 (ICI; Tocris Bioscience), 4-hydroxytamoxifen (Sigma-Aldrich), and MPP (Methylpiperidino pyrazole; Cayman Chemical) were added at the indicated concentrations for each experimental group below. The α-MEM medium (Gibco, Thermo Fisher Scientific Inc.) supplemented with 1.5 mM 2-O-α-d glucopyranosyl-1-ascorbic acid (Tokyo Chemical Industry), 10 units/mL penicillin, and 10 μg/mL streptomycin (Sigma-Aldrich) was used as a basal medium (referred to the basal medium hereafter as α-MEM).
ICI 182,780 and 4-hydroxytamoxifen was prepared as follows. ICI 182,780 and 4-hydroxytamoxifen was diluted to 100 mM using DMSO, and cryopreserved stock was prepared. MPP was diluted to 10 mM using DMSO, and cryopreserved stock was prepared. 1 mM solutions of ICI 182, 780 and 4-hydroxytamoxifen were prepared by diluting the 100 mM stocks 100-fold with DMSO just before use and were added to the medium at the indicated final concentrations for each experimental group. MPP was added to the medium at 1 μM as the final concentration just before use.
The gonads for the organ culture were collected with mesonephros or without mesonephros from female mouse fetuses at 12.5 dpc (FIG. 1a). 2.2 ml of the medium was added to each 6-well culture plate used for the organ culture. Transwell®-COL membrane (3.0-μm pore size, 24-mm diameter; Corning) was put on each well of the 6-well culture plate. The gonads were transferred on the membrane and were cultured for 17 days at 37° C. under 5% CO2 and 95% air. Approximately half of the medium in each well was replaced with fresh medium every other day. In the example in which the gonad was cultured with mesonephros, mesonephros was removed from the gonad at day 7 of the organ culture.
The in vitro organ culture of the gonads was performed according to the following conditions described below. The gonads were cultured for total 17 days in each conditions below (FIG. 2):
(i) culture for the complete 17 days period in 10% FBS containing α-MEM (α-MEM+FBS; FBS group);
(ii) culture for the complete 17 days period in 10% SPS containing α-MEM (α-MEM+SPS; SPS group);
(iii) culture for the complete 17 days period in 10% KSR containing α-MEM (α-MEM+KSR; KSR group);
(iv) culture in 10% FBS containing α-MEM for 4 days with a shift to 10% SPS containing α-MEM for 6 days from day 5 and a shift to 10% FBS containing α-MEM until day 17 from day 11 (αMEM+FBS/SPS; FBS/SPS group);
(v) culture in 10% FBS containing α-MEM for 4 days with a shift to 10% FBS containing α-MEM with the addition of 10 nM, 100 nM, 1 μM, 5 μM, or 10 μM (final concentration) ICI for 6 days from day 5 and a shift to 10% FBS containing α-MEM until day […] (αMEM+FBS/10 nM ICI; FBS/10 nM ICI group, αMEM+FBS/100 nM ICI; FBS/100 nM ICI group, αMEM+FBS/1 μM ICI; FBS/1 μM ICI group, αMEM+FBS/5 μM ICI; FBS/5 μM ICI group, or αMEM+FBS/10 μM ICI; FBS/10 μM ICI group);
(vi) culture in 10% FBS containing α-MEM for 4 days with a shift to 10% FBS containing α-MEM with the addition of 1 μM (final concentration) 4-hydroxytamoxifen for 6 days from day 5 and a shift to 10% FBS containing α-MEM until day 17 from day 11 (αMEM+FBS/1 μM Tamoxifen; FBS/1 μM Tamoxifen group);
(vii) culture in 10% FBS containing α-MEM for 4 days with a shift to 10% FBS containing α-MEM with the addition of 1 μM (final concentration) MPP for 6 days from day 5 and a shift to 10% FBS containing α-MEM until day 17 from day 11 (αMEM+FBS/1 μM MPP; FBS/1 μM MPP group).
Vitrification and warming were conducted as follows by reference to Wang, X. et al., “Successful in vitro culture of pre-antral follicles derived from vitrified murine ovarian tissue: oocyte maturation, fertilization, and live births.” Reproduction 141, 183-191 (2011). […]

[2] = tested on: cumulus-oocyte complexes (COCs); test: In vitro maturation to egg; format: cell-based, mouse
Procedure: The cumulus-oocyte complexes (COCs) were collected from the secondary follicles obtained by “3. In vitro growth culture of secondary follicle” described above. Then, COCs were cultured with α-MEM containing 5% FBS, 0.1 IU/mL FSH, 1.2 IU/mL chorionic gonadotropin (Gonatropin, ASKA Pharmaceutical), and […] (Gibco, Thermo Fisher Scientific Inc.) for 17 hours. Control COCs were collected from adult female mice 44 hours after the injection with equine CG (Serotropin; ASKA Pharmaceutical). The obtained COCs obtained from the adult female mice, in vivo-derived COCs, were cultured with α-MEM containing 5% FBS, 0.1 IU/mL FSH, 1.2 IU/mL chorionic gonadotropin, and 4 ng/mL epidermal growth factor in the same way to in vitro-derived COCs. As a result of in vitro maturation, in (ii) SPS group, (iv) FBS/SPS group, and (v) FBS/ICI group, 77 to 95% oocytes released the first polar body after 17 hours and became MII oocytes (FIGS. 11b and c).

[3] = FBS/1 μM ICI group (ICI day 5-11), 19 cultured gonads
[4] = FBS/5 μM ICI group (ICI day 5-11), 6 cultured gonads
[5] = FBS/10 μM ICI group (ICI day 5-11), 6 cultured gonads
[6] = Vitrification FBS/1 μM ICI (vitrified-warmed gonads), 4 cultured gonads

Question: Which “follicle morphology of the ovary under an optical microscope” value ([1]; (v) FBS/ICI group, FIG. 3d (10 μM ICI)) does the source give for `C[C@]12CC[C@@H]3c4ccc(O)cc4C[C@@H](CCCCCCCCC[S+]([O-])CCCC(F)(F)C(F)(F)F)[C@H]3[C@@H]1CC[C@@H]2O` (stereo partly drawn) [ICI, 7α, 17β-[9-([4,4,5,5,5-pentafluoropentyl]sulfinyl)nonyl]estra-1,3,5(10)-triene-3,17-diol] here?
Answer: abnormalities were significantly improved

Question: And the “number of the collected secondary follicles” value ([1]; (v) ICI group, 10 nM, 100 nM, 1 μM, 5 μM or 10 μM ICI day 5-11, FIG. 4)?
Answer: increased depending on the ICI concentration; also recorded: significantly increased compared to FBS group

Question: What about the “No. of collected follicles” value [1, 3] of the same compound?
Answer: 641

Question: What about the “No. of collected follicles” value [1, 4] of the same compound?
Answer: 312

Question: And the “No. of collected follicles” value [1, 5]?
Answer: 505

Question: And the “No. of collected follicles” value [1, 6]?
Answer: 57

Question: And the “follicles obtained from one ovary” value ([1]; vitrified and warmed gonads, FBS/1 μM ICI conditions)?
Answer: about 14

Question: What about the “No. of oocytes matured into MII, proportion to the number of collected follicles” value ([2]; FBS/1 μM ICI group (ICI day 5-11)) of the same compound?
Answer: 50.1%

Question: And the “No. of oocytes matured into MII” value [2, 3]?
Answer: 321

Question: What about the “No. of oocytes matured into MII, proportion to the number of collected follicles” value ([2]; FBS/5 μM ICI group (ICI day 5-11)) of the same compound?
Answer: 53.8%

Question: And the “No. of oocytes matured into MII” value [2, 4]?
Answer: 168

Question: What about the “No. of oocytes matured into MII, proportion to the number of collected follicles” value ([2]; FBS/10 μM ICI group (ICI day 5-11)) of the same compound?
Answer: 50.7%

Question: What about the “No. of oocytes matured into MII” value [2, 5] of the same compound?
Answer: 256

Question: And the “No. of oocytes matured into MII, proportion to the number of collected follicles” value ([2]; Vitrification FBS/1 μM ICI (vitrified-warmed gonads))?
Answer: 64.9%

Question: And the “No. of oocytes matured into MII” value [2, 6]?
Answer: 37
